Tests used:
aldose reductase [1] = target: T1, aldose reductase (Bos taurus, UniProt P16116); assay: In vitro inhibition of partially purified aldose reductase from bovine lenses, spectrophotometric; assay type: biochemical
T1 construct: partially purified aldose reductase is isolated in known manner from bovine lenses; from tissue; host or cells: bovine lens
From the text: Thus, in a standard procedure partially purified aldose reductase is isolated in known manner from bovine lenses. The percentage inhibition of this enzyme's ability in vitro to catalyse the reduction of aldoses to polyhydric alcohols, and particularly to reduce glucose to sorbitol, caused by a test compound can then be determined using standard spectrophotometric methods.

aldose reductase [2] = assay: Reduction of sciatic nerve sorbitol in streptozotocin-diabetic rats (inhibition of aldose reductase in vivo); parameters: species or system rat; details: after 5 daily oral doses of 3 mg/kg
Procedure: Rats are made diabetic (as evidenced by severe glucosuria being present) by dosing with streptozotocin. The animals are then dosed daily with the test compound for one, two or five days. The animals are then sacrificed 2-6 hours after the final dose and the eye lenses and/or sciatic nerves are removed. After a standard work-up procedure the residual sorbitol levels in each tissue are determined by gas liquid chromatography after conversion to the polytrimethylsilyl derivatives. Inhibition of aldose reductase in vivo can then be assessed by comparing the residual sorbitol levels in tissues from the dosed diabetic group of rats with those of an undosed group of diabetic rats and an undosed, normal group of rats.
In a variation of the above test diabetic rats are dosed at a fixed daily oral dose for five days and then sacrificed 6 hours aftre the final dose and the reduction of sciatic nerve sorbitol assessed relative to that in control animals.

Cc1cc(NC(=O)C(=O)N(C(C)C)C(C)C)cc(C)c1S(=O)(=O)C[N+](=O)[O-] [Example 2, N,N-di-isopropyl-N'-[3,5-dimethyl-4-(nitromethylsulfonyl)phenyl]oxamide]
IC50 (aldose reductase [1]): ~60 nM | reduction in sciatic nerve sorbitol levels (aldose reductase [2]): 82%

Source: US5110808A, “Amide derivatives, compositions and use” (Imperial Chemical Industries, PLC, priority 1990, dated 1992)
